The text below walks through data of ChEMBL document CHEMBL1140536, “Versatile templates for the development of novel kinase inhibitors: Discovery of novel CDK inhibitors” (Bioorg Med Chem Lett, 2007).

A short description of experiment [1]: Inhibition of recombinant cyclin A/CDK2 expressed in Sf9 cells. Set-up: species or system Homo sapiens.
Experiment [2] concerns A2780. Description: Growth inhibition of A2780 cells after 24 hrs by thymidine incorporation assay. It is filed as functional, cell-based. Particulars: Homo sapiens, A2780, 24 h. For orientation: Uptake of a labelled nucleoside into DNA is a usual measure of proliferation.

For orientation: IC50 means the concentration needed to halve the response being measured. On to `Fc1ccccc1-c1cn2ccnc2c(NCc2ccncc2)n1`, for which, in experiment [1], the IC50 amounted to 800 nM.

As for `Brc1cnc2c(NCc3ccncc3)cc(-c3ccccc3)cn12`, in experiment [1], the concentration for half-maximal inhibition (IC50) was found to be 700 nM.

For the compound `Brc1cnn2c(NCc3ccncc3)cc(-c3ccccc3)cc12`, the IC50 in experiment [1] was determined as 4500 nM.

As for `c1ccc(-c2cc(NCc3ccncc3)n3nccc3n2)cc1`, in experiment [1], the IC50 is 500 nM.

Turning to `Clc1cccc(-c2cc(NCc3ccncc3)n3nccc3n2)c1Cl`, the IC50 in experiment [1] came out at 500 nM.

As to `Brc1cnc2c(NCc3ccncc3)nc(-c3ccccc3)cn12`, the figures for the 50% inhibitory concentration (IC50) in experiment [1] and in experiment [2] were 440 nM and 2000 nM, respectively.
